From patent publication US12415785B2, “Compound modulators of sting” (CTXT PTY LTD, priority 2019, dated 2025)

Tests used:
human STING (HAQ) [1] = target: human STING (HAQ) (Homo sapiens, UniProt Q86WV6, G230A/H232R/R293Q); experiment: Surface plasmon resonance (SPR), STING (HAQ); format: binding; conditions: biotinylated STING on streptavidin chip, 8° C.
Protocol: Biophysical experiments were performed with three different recombinant human STING protein variants designated according to allelic nomenclature of Yi et al., (2013). Codon optimized DNA sequences (for expression in Escherichia coli) encoding amino acid residues 149 to 345 (Swiss Prot Q86WV6) of human STING (WT), human STING (HAQ) and human STING (R232H) were synthesised by GenScript USA Inc (Piscataway, New Jersey, USA). These were ligated into a modified pET43a E. coli expression vector designed to encode N-terminal His tag followed by tobacco etch virus protease (TEV) cleavage site and a STING gene sequence. The resulting protein sequences for the three allelic variants are listed below:
Binding interactions of ligands with STING proteins were quantified using Surface Plasmon Resonance (SPR) with a minimally biotinylated STING protein immobilized on a streptavidin chip surface. […] Minimal biotinylation of purified huSTING proteins was performed using a previously described methodology (Chhabra 2012). Briefly, approximately 20 nmol of recombinant STING protein in 1×TBS buffer (25 mM Tris-HCl, pH 7.5, 150 mM NaCl, 5 mM DTT) was mixed with of EZ-Link™ Sulfo-NHS-LC-LC-Biotin (Thermofisher Scientific, cat #21338) at a molar ratio of 1 to 0.6 and incubated on ice for 2 hours. To remove any unreacted biotin reagent, protein/biotin mixture was passed through a Superdex 75 (10/300 GL) column equilibrated with 10 mM HEPES, pH7.4, 150 mM NaCl, 5 mM DTT, 5%[v/v] glycerol. A protein peak containing biotinylated huSTING protein was collected and stored in aliquots at −80° C.
Streptavidin was simultaneously immobilized in all four channels of a CM5 sensor chip docked in a Biacore instrument (either Biacore S200 or Biacore T200, GE Healthcare) as described previously (Zender 2013). […]
All binding experiments were performed at 8° C. in SPR binding buffer. To determine binding affinity, compound interaction with immobilized STING protein was analysed using dose-response experiments. […]

human STING (HAQ) [2] = experiment: Differential scanning fluorimetry (DSF), huSTING (HAQ); format: binding; conditions: 2 μM protein, compound 100 μM; Tm with ligand minus Tm of protein alone (1% DMSO)
In short: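 Recombinant His-TEV-tagged human STING allelic variants expressed in E. coli and purified by IMAC. Thermal unfolding followed by dye fluorescence (excitation 490 nm, emission 570 nm) from 20° C. to 100° C. in 0.5° C. steps, in triplicate, with and without ligand; Tm taken from the transition inflection point.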

human STING (HAQ) (Homo sapiens, UniProt Q86WV6, G230A/H232R/R293Q), sequence (Q86WV6 whole entry G230A/H232R/R293Q, looked up, the tested form may be a part): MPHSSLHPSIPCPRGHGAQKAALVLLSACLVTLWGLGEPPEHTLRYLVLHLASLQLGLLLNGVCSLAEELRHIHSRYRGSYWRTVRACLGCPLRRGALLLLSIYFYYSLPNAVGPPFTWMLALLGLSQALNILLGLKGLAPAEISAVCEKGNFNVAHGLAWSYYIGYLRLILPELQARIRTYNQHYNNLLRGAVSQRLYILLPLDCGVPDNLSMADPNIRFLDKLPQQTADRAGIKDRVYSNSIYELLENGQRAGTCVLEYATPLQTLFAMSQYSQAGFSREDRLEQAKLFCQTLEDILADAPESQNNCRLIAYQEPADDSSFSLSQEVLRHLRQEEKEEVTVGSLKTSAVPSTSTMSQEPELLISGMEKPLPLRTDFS

Row | Structure (SMILES) | Kd (human STING (HAQ) [1]) [µM] | DSF huSTING (HAQ) ΔTm (° C.) (human STING (HAQ) [2]) [°C]
1 | NC(=O)c1ccc2c(c1)nc(-c1cc(Br)ccc1C(=O)O)n2CCn1c(-c2cc(Br)ccc2C(=O)O)nc2cc(C(N)=O)ccc21 [Example 3, 2,2′-(Ethane-1,2-diylbis(5-carbamoyl-1H-benzo[d]imidazole-1,2-diyl))bis(4-bromobenzoic acid)] | > 10 | –
2 | NC(=O)c1ccc2c(c1)nc(-c1c(Br)cccc1C(=O)O)n2CCn1c(-c2c(Br)cccc2C(=O)O)nc2cc(C(N)=O)ccc21 (single isomer, unassigned) [Example 29.1, 2,2′-(Ethane-1,2-diylbis(5-carbamoyl-1H-benzo[d]imidazole-1,2-diyl))bis(3-bromobenzoic acid)] | – | 7.46
3 | COc1c(C(N)=O)ccc2c1nc(-c1ccc(C(F)(F)F)cc1C(=O)O)n2CCn1c(-c2ccc(C(F)(F)F)cc2C(=O)O)nc2c(OC)c(C(N)=O)ccc21 [Example 38, 6,6′-(Ethane-1,2-diylbis(5-carbamoyl-4-methoxy-1H-benzo[d]imidazole-1,2-diyl))bis(3-(trifluoromethyl)benzoic acid)] | > 100 | –
4 | COc1c(C(N)=O)ccc2c1nc(-c1ccc(Cl)c(Cl)c1-c1nn[nH]n1)n2CCn1c(-c2ccc(Cl)c(Cl)c2-c2nn[nH]n2)nc2c(OC)c(C(N)=O)ccc21 [Example 37, 1,1′-(Ethane-1,2-diyl)bis(2-(3,4-dichloro-2-(2H-tetrazol-5-yl)phenyl)-4-methoxy-1H-benzo[d]imidazole-5-carboxamide)] | 0.2 | –
